The record followed here is PMC3914206.

Assay [1] concerns the target T1, panel of 442 kinases (Homo sapiens, UniProt O14920).
T1 construct: purchased KINOMEscan
T1 sequence (O14920 1-756): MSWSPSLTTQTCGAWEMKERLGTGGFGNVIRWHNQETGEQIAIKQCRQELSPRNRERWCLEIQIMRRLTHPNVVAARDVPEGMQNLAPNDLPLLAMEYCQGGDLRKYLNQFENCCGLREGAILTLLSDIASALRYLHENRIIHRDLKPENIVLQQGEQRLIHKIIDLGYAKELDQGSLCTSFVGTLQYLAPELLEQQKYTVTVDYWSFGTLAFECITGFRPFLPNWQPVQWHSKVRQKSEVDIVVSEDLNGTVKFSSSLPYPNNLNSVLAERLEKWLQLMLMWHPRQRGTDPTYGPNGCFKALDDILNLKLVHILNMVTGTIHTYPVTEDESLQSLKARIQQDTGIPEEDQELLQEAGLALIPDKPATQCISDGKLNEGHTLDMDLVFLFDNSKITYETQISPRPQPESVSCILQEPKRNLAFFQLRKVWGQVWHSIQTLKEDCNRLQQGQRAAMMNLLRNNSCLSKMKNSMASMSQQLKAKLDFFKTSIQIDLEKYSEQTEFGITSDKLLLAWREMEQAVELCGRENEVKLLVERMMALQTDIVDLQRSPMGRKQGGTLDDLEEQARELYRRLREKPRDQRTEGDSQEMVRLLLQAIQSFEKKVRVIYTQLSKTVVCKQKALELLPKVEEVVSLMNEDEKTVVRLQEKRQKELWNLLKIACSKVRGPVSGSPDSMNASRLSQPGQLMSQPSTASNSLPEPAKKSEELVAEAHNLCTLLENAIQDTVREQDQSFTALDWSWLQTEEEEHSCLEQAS
The assay is classed as binding. As to conditions: Compound Concentration 10 µM. An excerpt:
(§1) We assessed the selectivity of members of this scaffold using the KINOMEscan methodology across a near comprehensive panel of 442 kinases [[18,27]].

Assay [2] has as its target T2, panel of 442 kinases (Homo sapiens, UniProt Q15349).
T2 construct: purchased KINOMEscan
In kind it is binding. As to conditions: compound concentration 10 µM; for % Ctrl, RSK3(Kin.Dom.1-N-terminal): kinase RSK3(Kin.Dom.1-N-terminal); for % Ctrl, RSK3(Kin.Dom.2-C-terminal): kinase RSK3(Kin.Dom.2-C-terminal).
Excerpt: as §1

T2 sequence (Q15349 whole entry): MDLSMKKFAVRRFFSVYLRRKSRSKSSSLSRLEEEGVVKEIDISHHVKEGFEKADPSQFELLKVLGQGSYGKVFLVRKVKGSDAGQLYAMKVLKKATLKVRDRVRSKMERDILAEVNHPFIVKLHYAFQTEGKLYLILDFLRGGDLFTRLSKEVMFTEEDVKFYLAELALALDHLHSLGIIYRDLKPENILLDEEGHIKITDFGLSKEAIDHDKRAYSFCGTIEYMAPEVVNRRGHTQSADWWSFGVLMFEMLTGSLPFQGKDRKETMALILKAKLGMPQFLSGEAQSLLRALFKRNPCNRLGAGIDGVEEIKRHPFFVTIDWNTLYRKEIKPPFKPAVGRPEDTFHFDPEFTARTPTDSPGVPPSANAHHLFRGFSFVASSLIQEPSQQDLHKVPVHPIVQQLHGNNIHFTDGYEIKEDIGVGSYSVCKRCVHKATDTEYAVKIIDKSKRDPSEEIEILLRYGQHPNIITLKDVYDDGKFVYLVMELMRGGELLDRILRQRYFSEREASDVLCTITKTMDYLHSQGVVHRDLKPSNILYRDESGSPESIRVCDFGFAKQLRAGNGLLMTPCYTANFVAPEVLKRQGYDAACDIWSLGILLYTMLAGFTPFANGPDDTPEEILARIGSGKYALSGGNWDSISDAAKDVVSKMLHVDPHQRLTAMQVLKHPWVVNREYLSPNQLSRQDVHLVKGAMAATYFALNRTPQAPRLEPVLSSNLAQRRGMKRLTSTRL

With `CCOc1cc(C(=O)N2CCC(N3CCN(C)CC3)CC2)ccc1Nc1ncc2c(n1)N(C1CCCC1)c1ccccc1C(=O)N2C` [Compound 26], at panel of 442 kinases [1], the “KINOMEscan: IKK-beta” value amounted to 99. Also, at panel of 442 kinases [2], the “% Ctrl, RSK3(Kin.Dom.1-N-terminal)” value came out at 100 % Ctrl and the “% Ctrl, RSK3(Kin.Dom.2-C-terminal)” value turned out to be 83 % Ctrl.

Consider `COc1cc(C(=O)N2CCC(N3CCN(C)CC3)CC2)ccc1Nc1ncc2c(n1)N1CCc3cccc(c31)C(=O)N2C` [Compound 24], for which, at panel of 442 kinases [2], the “% Ctrl, RSK3(Kin.Dom.1-N-terminal)” value came to 100 % Ctrl and the “% Ctrl, RSK3(Kin.Dom.2-C-terminal)” value was 13 % Ctrl.

As to `COc1cc(C(=O)N2CCC(N3CCN(C)CC3)CC2)ccc1Nc1ncc2c(n1)N(C)c1ccccc1C(=O)N2C` [15 (LRRK2-IN-1)], at panel of 442 kinases [1], the “KINOMEscan: IKK-beta” value was determined as 89. Moreover, on panel of 442 kinases [2], the “% Ctrl, RSK3(Kin.Dom.1-N-terminal)” value is recorded as 83 % Ctrl and the “% Ctrl, RSK3(Kin.Dom.2-C-terminal)” value was 7.5 % Ctrl.

Regarding `COc1cc(C(=O)N2CCC(N3CCN(C)CC3)CC2)ccc1Nc1ncc2c(n1)N(C1CCCC1)c1ccccc1C(=O)N2C` [Compound 25, 11-cyclopentyl-2-((2-methoxy-4-(4-(4-methylpiperazin-1-yl)piperidine-1-carbonyl)phenyl)amino)-5-methyl-5H-benzo[e]pyrimido[5,4-b][1,4]diazepin-6(11H)-one], the “KINOMEscan: IKK-beta” value on panel of 442 kinases [1] worked out at 100. Further, on panel of 442 kinases [2], the “% Ctrl, RSK3(Kin.Dom.1-N-terminal)” value came out at 100 % Ctrl and the “% Ctrl, RSK3(Kin.Dom.2-C-terminal)” value is given as 78 % Ctrl.
